Source: ChEMBL document CHEMBL4422644, “Synthesis and evaluation of α-aminoacyl amides as antitubercular agents effective on drug resistant tuberculosis” (Eur J Med Chem, 2019)
In brackets after ≈: the same amount, converted by molar mass.

How the values were obtained:
[1] = test system: Mycobacterium tuberculosis; assay: Antitubercular activity against Mycobacterium tuberculosis H37Rv after 7 days by alamar blue assay; type: functional; settings: 168 h
CHO-K1 = assay: Cytotoxicity against CHOK1 cells after 24 hrs by MTT assay; type: cell-based; settings: Cricetulus griseus, CHO-K1, 24 h
[2] = Selectivity index, ratio of IC50 for CHOK1 cells to MIC for Mycobacterium tuberculosis H37Rv; type: toxicity; settings: hamster, read-out: Selectivity Index
A549 = assay: Cytotoxicity against human A549 cells after 24 hrs by MTT assay; type: functional, cell-based; settings: A549, 24 h
DU-145 = assay: Cytotoxicity against human DU145 cells after 24 hrs by MTT assay; type: functional, cell-based; settings: DU-145, 24 h
HeLa = assay: Cytotoxicity against human HeLa cells after 24 hrs by MTT assay; type: functional, cell-based
HepG2 = assay: Cytotoxicity against human HepG2 cells after 24 hrs by MTT assay; type: functional, cell-based; settings: HepG2, 24 h
MCF7 = assay: Cytotoxicity against human MCF7 cells after 24 hrs by MTT assay; type: functional, cell-based; settings: MCF7, 24 h
[3] = Cytotoxicity against […] B16 cells after 24 hrs by MTT assay; type: functional, cell-based; settings: B16, 24 h
[4] = Cytotoxicity against HEK cells after 24 hrs by MTT assay; type: cell-based; settings: Homo sapiens, HEK293, 24 h
Escherichia coli = assay: Antibacterial activity against Escherichia coli ATCC 25922 after 24 hrs; type: functional; settings: ATCC 25922, 24 h
Staphylococcus aureus = assay: Antibacterial activity against Staphylococcus aureus ATCC 29213 after 24 hrs; type: functional; settings: ATCC 29213, 24 h
Pseudomonas aeruginosa = assay: Antibacterial activity against Pseudomonas aeruginosa ATCC 27853 after 24 hrs; type: functional; settings: ATCC 27853, 24 h
Klebsiella pneumoniae = assay: Antibacterial activity against Klebsiella pneumoniae ATCC BAA-1705 after 24 hrs; type: functional; settings: ATCC BAA-1705, 24 h
Acinetobacter baumannii = assay: Antibacterial activity against Acinetobacter baumannii ATCC BAA-1605 after 24 hrs; type: functional; settings: ATCC BAA-1605, 24 h
[5] = test system: Mycolicibacterium fortuitum; assay: Antibacterial activity against Mycobacterium fortuitum after 7 days by alamar blue assay; type: functional; settings: 168 h
Mycobacteroides chelonae = assay: Antibacterial activity against Mycobacterium chelonae after 7 days by alamar blue assay; type: functional; settings: 168 h
[6] = test system: Mycobacteroides abscessus; assay: Antibacterial activity against Mycobacterium abscessus after 7 days by alamar blue assay; type: functional; settings: 168 h

Structure (SMILES)	MIC [1] [µM]	IC50 (CHO-K1) [µM]	selectivity ratio [2]	IC50 (A549) [µM]	IC50 (DU-145) [µM]	IC50 (HeLa) [µM]	IC50 (HepG2) [µM]	IC50 (MCF7) [µM]	IC50 [3] [µM]	IC50 [4] [µM]	MIC (Escherichia coli) [µM]	MIC (Staphylococcus aureus) [µM]	MIC (Pseudomonas aeruginosa) [µM]	MIC (Klebsiella pneumoniae) [µM]	MIC (Acinetobacter baumannii) [µM]	MIC [5] [µM]	MIC (Mycobacteroides chelonae) [µM]	MIC [6] [µM]
Cc1ccc(N(C(=O)c2sc(C)nc2C)C(C(=O)NC2CCCCC2)c2ccc[nH]2)cc1 (stereo not drawn)	6.25 (≈ 2.82 µg/mL)	33.4	5.3	11.7	12.7	11.6	6.13	4.25	14.5	15.4	> 50	> 50	> 50	> 50	> 50	> 50	> 50	> 50
Cc1cccc(N(C(=O)c2ccc[nH]2)C(C(=O)NC2CCCCC2)c2cccnc2)c1C (stereo not drawn)	12.5 (≈ 5.38 µg/mL)	267	21.4	17.5	12.6	10	9.58	5.51	13.7	54.3	> 50	> 50	> 50	> 50	> 50	> 50	> 50	> 50
Cc1cccc(N(C(=O)c2ccncc2)C(C(=O)NC2CCCCC2)c2cccnc2)c1C (stereo not drawn)	3.12 (≈ 1.38 µg/mL)	171	11.3	11.8	20.2	11.2	12.7	6.14	19.8	86.1	> 50	> 50	> 50	> 50	> 50	> 50	> 50	> 50
Cc1nc(C)c(C(=O)N(c2cccc(C)c2C)C(C(=O)NCc2ccccc2)c2ccccc2)s1 (stereo not drawn)	6.12 (≈ 2.96 µg/mL)	30.2	4.9	12.7	12.6	11.7	8.13	5.62	12.4	31.2	> 50	> 50	> 50	> 50	> 50	> 50	> 50	> 50
Cc1cccc(N(C(=O)c2ccc[nH]2)C(C(=O)NC2CCCCC2)c2ccccc2)c1C (stereo not drawn)	12.5 (≈ 5.37 µg/mL)	134	10.7	6.83	11.2	14.2	11	3.58	12.3	116	> 50	> 50	> 50	> 50	> 50	> 50	> 50	> 50
Cc1cccc(N(C(=O)c2ccncc2)C(C(=O)NC2CCCCC2)c2ccccc2)c1C (stereo not drawn)	6.25 (≈ 2.76 µg/mL)	81.4	13	12.9	11.3	13.8	6.99	6.41	12.2	38	> 50	> 50	> 50	> 50	> 50	> 50	> 50	> 50
Cc1nc(C)c(C(=O)N(c2cccc(C)c2C)C(C(=O)NC2CCCCC2)c2ccc(Cl)cc2)s1 (stereo not drawn)	3.12 (≈ 1.59 µg/mL)	11.4	3.5	9.2	8.53	13.9	6.15	4.12	21	90.5	> 50	> 50	> 50	> 50	> 50	> 50	> 50	> 50
Cc1cccc(N(C(=O)c2ccc[nH]2)C(C(=O)NC2CCCCC2)c2ccncc2)c1C (stereo not drawn)	6.25 (≈ 2.69 µg/mL)	142	22.6	15.8	10.8	13.1	8.95	5.85	16.6	108	> 50	> 50	> 50	> 50	> 50	> 50	> 50	> 50
Cc1ccc(N(C(=O)c2c(C)noc2C)C(C(=O)NC2CCCCC2)c2ccncc2)cc1 (stereo not drawn)	6.12 (≈ 2.73 µg/mL)	166	26.6	11	9.53	15.8	8.48	4.24	28.6	71.3	> 50	> 50	> 50	> 50	> 50	> 50	> 50	> 50
Cc1ccc(N(C(=O)c2sc(C)nc2C)C(C(=O)NC2CCCCC2)c2c(F)cc(Br)cc2F)cc1 (stereo not drawn)	6.25 (≈ 3.6 µg/mL)	53.3	8.5	11.7	12.6	22.2	4.79	4.08	10.8	58.3	> 50	> 50	> 50	> 50	> 50	> 50	> 50	> 50
Cc1cccc(N(C(=O)c2cccs2)C(C(=O)NC2CCCCC2)c2ccccc2)c1C (stereo not drawn)	3.12 (≈ 1.39 µg/mL)	38.2	12.2	17.9	9.14	12.7	9.63	16.9	14.3	22.9	> 50	> 50	> 50	> 50	> 50	> 50	> 50	> 50
